What is called IC50 is the concentration needed to halve the response being measured. A higher IC50 goes with a need for much substance.

The source of these data is ChEMBL document CHEMBL1155595, “Inhibition of T-lymphocyte proliferation by cucurbitacins from Picrorhiza scrophulariaeflora” (J Nat Prod, 2000).

Data set [1] can be described thus: Inhibition of phytohemagglutininin A-induced T-cell proliferation in human peripheral blood lymphocytes after 4 days by MTT assay. The class given is functional, cell-based. The following applies: PBL, 96 h.
Data set [2] can be described thus: Cytotoxicity against human peripheral blood lymphocytes assessed as LDH release upto 50 uM after 24 hrs. Conditions: pbl. (In general: Release of lactate dehydrogenase indicates damage to the cell membrane.)
A short description of data set [3]: Cytotoxicity against human peripheral blood lymphocytes at <60 uM after 4 days by CFDA/PI labeling assay. The following applies: pbl, 96 h.

Structures are written as SMILES.

As for `CC(C)(O)/C=C/C(=O)[C@@](C)(O)[C@H]1[C@H](O)C[C@@]2(C)[C@@H]3CC=C4[C@@H](C[C@H](O)[C@H](O)C4(C)C)[C@]3(C)CC[C@]12C` [DEACETYLPICRACIN], the midpoint of inhibition in data set [1], the IC50, lay at 1 µM. In addition, the Activity entry in data set [2] is “Non-toxic”; in data set [3], less than 10%.
On the same counts, the results for `CC(=O)OC(C)(C)/C=C/C(=O)[C@@](C)(O)[C@H]1[C@H](O)C[C@@]2(C)[C@@H]3CC=C4[C@@H](C[C@H](O)[C@H](O)C4(C)C)[C@]3(C)CC[C@]12C` [PICRACIN] are 1 µM, “Non-toxic” and less than 10%.
